Data taken from patent US9675579B2, “Tetrahydrocannabivarin for use in the treatment of nausea and vomiting” (GW Pharma Limited, priority 2013, dated 2017).
“Also recorded” adds a separate entry of the source. Where two headings read alike, the source gives them in different places.

Experiments:
rodent = details: cited from earlier work; for suppression of toxin-induced conditioned gaping: rodent model of conditioned nausea
Sprague-Dawley rats [1] = experiment: Potentiation or attenuation of LiCl-induced conditioned gaping (Example 2); assay type: in vivo, rat; details: for LiCl-induced conditioned gaping reactions relative to group VEH: rats, drug-free test 72 h later
Method: Animals and Drugs and Materials were as described in Example 1 above.
Following recovery from intraoral cannulation surgery, the rats received the adaptation trial to the TR test as described in Example 1 above. On the day of conditioning (saccharin palatability test), the rats were injected with VEH (n=10), 2.5 mg/kg SR (n=10), 2.5 mg/kg THC (n=6), 10 mg/kg THC (n=7), 2.5 mg/kg THCV (n=10) or 10 mg/kg THCV (n=6), 2.5 mg/kg CBDV (n=10) or 200 mg/kg CBDV (n=13). Thirty min later, each rat was intraorally infused with 0.1% saccharin solution while their orofacial responses were video recorded from the mirror beneath the chamber. Immediately following the 2 min intraoral infusion of saccharin, the rats were injected with 20 ml/kg or 0.15 M LiCl.
Seventy-two hours later, the rats received a drug-free test trial, during which they received a 2 min intraoral infusion of 0.1% saccharin solution and the frequency of gaping was measured. The videotapes were later scored (at 1/2 speed) by an observer blind to the experimental conditions for the hedonic reaction of tongue protrusions (at conditioning and testing). As well, to determine other non-specific effects of the drug during conditioning, the conditioning tapes were scored for bouts of active locomotion (forward movement of paws on the floor of the cage).

Sprague-Dawley rats [2] = experiment: Conditioned gaping to saccharin paired with the compound (Example 1)
Method: Naïve male Sprague-Dawley rats, obtained from Charles River Laboratories (St Constant, Quebec) were single-housed in shoebox cages in the colony room at an ambient temperature of 21° C. with a 12/12 light/dark schedule (lights off at 8 AM) and maintained on ad-libitum food and water.
Drugs and Materials: All cannabinoid compounds were prepared in a vehicle (VEH) of ethanol/Cremophor (Sigma)/saline (SAL; 1:1:18) and administered intraperitonally (i.p.).
SR was prepared at 2.5, 10 and 20 mg/kg and administered at a volume of 2 ml/kg. CBDV was prepared at 2.5 and 10 mg/kg and administered at a volume of 2 ml/kg. A high dose of CBDV was prepared at 200 mg/kg and administered at a volume 10 ml/kg. THCV was prepared at 2.5, 10 and 20 mg/kg and administered at a volume of 2 ml/kg.
Procedures: Rats were implanted with intraoral cannulae under isofluorane anesthesia. […]
Seventy two hours after the conditioning trial, the rats were returned to the TR chamber and intraorally infused with 0.1% saccharin solution and their orofacial reactions were video recorded with the feed from the video camera fire-wired into a computer. The video tapes are later scored (at 1/2 speed) by a trained observer blind to the experimental conditions for the behaviour of gaping (large openings of the mouth and jaw, with lower incisors exposed).

CB1 receptor [3] = target: CB1 receptor (Homo sapiens, UniProt P21554); details: in vitro, Thomas et al., 2005; cited from earlier work
CB2 receptor = CB2 receptor (Homo sapiens, UniProt P34972); details: in vitro, Thomas et al., 2005; cited from earlier work
CB1 receptor [4] = target: CB1 receptor (Mus musculus, UniProt P47746); details: low doses (<3 mg/kg), Pertwee et al., 2007; cited from earlier work
[5] = 2.5 mg/kg i.p. 30 min before saccharin-LiCl pairing

Chain of CB1 receptor (Mus musculus, UniProt P47746) (P47746 whole entry): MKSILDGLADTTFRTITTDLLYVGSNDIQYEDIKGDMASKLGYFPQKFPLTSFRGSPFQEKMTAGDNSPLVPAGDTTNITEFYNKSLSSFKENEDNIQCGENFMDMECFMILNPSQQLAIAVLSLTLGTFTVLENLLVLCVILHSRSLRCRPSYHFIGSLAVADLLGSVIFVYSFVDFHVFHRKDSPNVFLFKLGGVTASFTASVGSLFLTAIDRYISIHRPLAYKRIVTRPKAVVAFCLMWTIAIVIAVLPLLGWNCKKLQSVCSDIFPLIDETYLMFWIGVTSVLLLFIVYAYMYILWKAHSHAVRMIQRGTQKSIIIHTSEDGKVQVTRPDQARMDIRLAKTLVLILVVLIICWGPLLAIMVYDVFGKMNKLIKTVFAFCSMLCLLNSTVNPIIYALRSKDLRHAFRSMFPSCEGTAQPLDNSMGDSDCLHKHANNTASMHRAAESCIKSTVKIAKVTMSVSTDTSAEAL
Chain of CB1 receptor (Homo sapiens, UniProt P21554) (P21554 whole entry): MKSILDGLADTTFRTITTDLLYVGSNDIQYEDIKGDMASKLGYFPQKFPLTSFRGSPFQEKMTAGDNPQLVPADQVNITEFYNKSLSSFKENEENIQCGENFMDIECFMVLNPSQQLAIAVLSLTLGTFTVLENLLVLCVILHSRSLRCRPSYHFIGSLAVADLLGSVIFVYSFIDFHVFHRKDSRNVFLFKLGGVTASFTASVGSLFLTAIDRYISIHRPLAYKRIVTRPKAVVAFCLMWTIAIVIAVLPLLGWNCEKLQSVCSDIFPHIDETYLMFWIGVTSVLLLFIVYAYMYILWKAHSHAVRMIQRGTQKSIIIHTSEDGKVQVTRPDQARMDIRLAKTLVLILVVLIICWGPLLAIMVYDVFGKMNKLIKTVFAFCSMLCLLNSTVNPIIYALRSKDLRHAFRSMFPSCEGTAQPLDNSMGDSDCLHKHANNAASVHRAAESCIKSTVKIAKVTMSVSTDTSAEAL
Chain of CB2 receptor (P34972 whole entry): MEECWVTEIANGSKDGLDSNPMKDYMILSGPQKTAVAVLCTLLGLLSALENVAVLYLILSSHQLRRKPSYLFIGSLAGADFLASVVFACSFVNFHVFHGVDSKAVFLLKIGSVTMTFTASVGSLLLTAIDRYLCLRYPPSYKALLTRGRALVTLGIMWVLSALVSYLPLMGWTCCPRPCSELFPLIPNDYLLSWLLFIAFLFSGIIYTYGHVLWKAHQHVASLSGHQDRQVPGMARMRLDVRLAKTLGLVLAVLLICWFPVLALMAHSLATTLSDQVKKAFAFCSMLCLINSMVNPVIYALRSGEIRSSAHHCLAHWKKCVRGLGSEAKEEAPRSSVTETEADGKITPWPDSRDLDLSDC

For C=C(C)[C@@H]1CCC(C)=C[C@H]1c1c(O)cc(CCCCC)cc1O [CBD, cannabidiol], the “suppression of toxin-induced conditioned gaping” value (rodent; 5 mg/kg) is listed as “suppress toxin-induced conditioned gaping”.

With C=C(C)[C@@H]1CCC(C)=C[C@H]1c1c(O)cc(CCC)cc1O [CBDV] the “LiCl-induced conditioned gaping reactions relative to group VEH” value (Sprague-Dawley rats [1]; [5]) was “marginally attenuated LiCl-induced gaping reactions” and the “LiCl-induced conditioned gaping reactions relative to group VEH” value (Sprague-Dawley rats [1]; 200 mg/kg i.p. 30 min before saccharin-LiCl pairing, 200 mg/kg) was “significantly attenuated the LiCl-induced gaping reactions; also recorded: statistically significant anti-nausea effect”.

In the case of Cc1c(C(=O)NN2CCCCC2)nn(-c2ccc(Cl)cc2Cl)c1-c1ccc(Cl)cc1 [SR, rimonabant], the “conditioned gaping, 20 mg/kg compared with 10 mg/kg” value (Sprague-Dawley rats [2]; rat, in vivo) is listed as “marginally more gaping”, the “LiCl-induced conditioned gaping reactions relative to group VEH” value (Sprague-Dawley rats [1]; [5]) is listed as “potentiated LiCl-induced gaping reactions” and the “potentiation of the nausea produced by LiCl (potentiated gaping)” value (rodent; 2.5 mg/kg, sub-threshold for nausea on its own, pre-treatment prior to saccharin-LiCl pairing, drug-free test 72 hours after conditioning) is listed as “potentiated the nausea produced by LiCl”.

In the case of CCCCCc1cc(O)c2c(c1)OC(C)(C)[C@@H]1CCC(C)=C[C@@H]21 [THC, tetrahydrocannabinol], the “LiCl-induced conditioned gaping reactions relative to group VEH” value (Sprague-Dawley rats [1]; [5]) is listed as “significantly attenuated the LiCl-induced gaping reactions”, the “LiCl-induced conditioned gaping reactions relative to group VEH” value (Sprague-Dawley rats [1]; 10 mg/kg i.p. 30 min before saccharin-LiCl pairing) is listed as “significantly attenuated the LiCl-induced gaping reactions” and the “suppression of toxin-induced conditioned gaping” value (rodent; 0.5 mg/kg) is listed as “suppress toxin-induced conditioned gaping”.

With CCCc1cc(O)c2c(c1)OC(C)(C)[C@@H]1CCC(C)=C[C@@H]21 [THCV, tetrahydrocannabivarin] the “conditioned gaping reactions (nausea-like reactions) elicited by 0.1% saccharin previously paired with the compound” value (Sprague-Dawley rats [2]; rats, i.p., all doses tested (SR 10, 20; AM251 10; THCV 10, 20; CBDV 10, 200 mg/kg), drug-free test 72 h after conditioning, vs VEH and other groups) was “did not produce apparent inverse agonist properties; also recorded: neither CBDV (10 or 200 mg/kg) nor THCV (10 or 20 mg/kg) produced the nausea-like profile of conditioned gaping”, the “human equivalent dose of the dose that blocked LiCl-induced nausea” value (Sprague-Dawley rats [1]; calculated from the rat dose, Km rat 6, Km human 37) was “greater than 0.4 mg/kg” and the “dose that blocked LiCl-induced nausea” value (Sprague-Dawley rats [1]; in rats) was “greater than 2.5 mg/kg”. The “LiCl-induced conditioned gaping reactions relative to group VEH” value (Sprague-Dawley rats [1]; [5]) was “marginally attenuated LiCl-induced gaping reactions”, the “LiCl-induced conditioned gaping reactions relative to group VEH” value (Sprague-Dawley rats [1]; 10 mg/kg i.p. 30 min before saccharin-LiCl pairing, 10 mg/kg) was “no gaping reactions; also recorded: eliminated LiCl-induced nausea” and the “action at the CB1 receptor” value (CB1 receptor [3]) was “acts as a CB1 and CB2 receptor antagonist”. The “action at the CB2 receptor” value (CB2 receptor) was “acts as a CB1 and CB2 receptor antagonist” and the “action at the CB1 receptor in vivo” value (CB1 receptor [4]) was “act as a CB1 receptor antagonist”.
